Source: patent US11572341B2, “Biguanide compound and use thereof” (ImmunoMet Therapeutics Inc., priority 2014, dated 2023)
Where two headings read alike, the source gives them in different places.

Legend:
[1] = test system: AMPKa [pT172]; assay: AMPKa activation [pT172] in MCF7 cell; type: cell-based
[2] = test system: HCT116 cells; assay: Inhibitory effect against cancer cell proliferation (MTT); type: cell-based, human; conditions: HCT116, MTT, 48 hours, read-out: IC50 (uM) @ HCT116
Procedure: The formazane crystals thus formed were dissolved using dimethyl sulfoxide (DMSO) and absorbance of the solution was measured at 560 nm. After culturing for 48 hours, […] synthesized in Examples was indicated as cell viability (%) according to each treated concentration.

IC50 ([2]; Homo sapiens, HCT-116)	Compound	AMPKa activation [pT172] (Unit/ml) @ MCF7 cell ([1]; 5 uM)	AMPKa activation [pT172] (Unit/ml) @ MCF7 cell ([1]; 10 uM)	AMPKa activation [pT172] (Unit/ml) @ MCF7 cell ([1]; 50 uM)	IC50 [2]
> 100 µM	CC1CCN(C(=N)NC(=N)Nc2ccc(CCN)cc2)CC1.Cl [Example 69, N1-(4-methyl)piperidin-N5-(4-aminoethyl)phenyl Biguanide Hydrochloride]	5.6 Unit/ml	4.7 Unit/ml	5.3 Unit/ml	
> 100 µM	CC(=O)Nc1ccc(NC(=N)NC(=N)N)cc1.Cl [Example 125, N1-4-(N-acetylamino)phenyl Biguanide Hydrochloride]			5.0 Unit/ml	
> 100 µM	CCCc1ccccc1NC(=N)NC(=N)N.Cl [Example 121, N1-(2-propyl)phenyl Biguanide Hydrochloride]			9.0 Unit/ml	
124 µM	Cl.N=C(N)NC(=N)NCCc1ccc2c(c1)OCO2 [Example 143, N1-2-(benzo[d][1,3]dioxol-5-yl)ethyl Biguanide Hydrochloride]	5.5 Unit/ml	5.7 Unit/ml	7.2 Unit/ml	

Further lines, the compound ahead of its results:

Compound	IC50 ([2]; Homo sapiens, HCT-116)	AMPKa activation [pT172] (Unit/ml) @ MCF7 cell ([1]; 5 uM)	AMPKa activation [pT172] (Unit/ml) @ MCF7 cell ([1]; 10 uM)	AMPKa activation [pT172] (Unit/ml) @ MCF7 cell ([1]; 50 uM)	IC50 [2]
CC1CCCN(C(=N)NC(=N)Nc2cnccn2)C1.Cl (stereo not shown) [Example 47, N1-(3-methyl)piperidin-N5-pyrazin-2-yl Biguanide Hydrochloride]	130 µM	2.8 Unit/ml	3.8 Unit/ml	5.3 Unit/ml	
Cl.N=C(N)NC(=N)N1CCCCC1 [Example 123, N1-piperidine Biguanide Hydrochloride]	> 100 µM	6.6 Unit/ml	7.5 Unit/ml	12.6 Unit/ml	
CCCN(CC)C(=N)NC(=N)N(CCC)CCC.Cl [Example 7, N1,N1-dipropyl-N5-propyl-N5-ethyl Biguanide Hydrochloride]	> 100 µM	16.2 Unit/ml	22.3 Unit/ml	34.6 Unit/ml	
Cl.N=C(NC(=N)N1CCCC1)Nc1ccccc1C(F)(F)F [Example 75, N1-pyrrolidin-N5-(2-trifluoromethyl)phenyl Biguanide Hydrochloride]		3.5 Unit/ml	3.6 Unit/ml	5.3 Unit/ml	> 100 µM
Cl.N=C(N)N/C(=N/CCc1ccccc1)Nc1ccccc1 [Example 94, N1-phenyl-N2-phenethyl Biguanide Hydrochloride]	105 µM			9.0 Unit/ml	
Cl.N=C(N)N/C(=N/C1CCCCCC1)NCc1ccc(Cl)cc1 [Example 98, N1-(4-chloro)benzyl-N2-cycloheptyl Biguanide Hydrochloride]	49.2 µM	7.2 Unit/ml	9.6 Unit/ml	37.5 Unit/ml	
N1-(3,5-dimethyl)piperidin-N5-(4-trifluoromethyl)phenyl Biguanide Hydrochloride [Example 63]		15.1 Unit/ml	22.9 Unit/ml	cell death	2.8 µM
CN1CCN(C(=N)NC(=N)Nc2ccc(F)cc2)CC1.Cl [Example 33, N1-(4-methyl)piperazin-N5-(4-fluoro)phenyl Biguanide Hydrochloride]	> 100 µM	3.8 Unit/ml	3.3 Unit/ml	4.3 Unit/ml	
CC1CCN(C(=N)NC(=N)Nc2cccc(C(F)(F)F)c2)CC1.Cl [Example 50, N1-(4-methyl)piperidin-N5-(3-trifluoromethyl)phenyl Biguanide Hydrochloride]	6.7 µM	8.3 Unit/ml	11.5 Unit/ml	cell death	
